The subject of assay [1] is V. anguillarum. Description: Protection of coho salmon, peptide delivered constantly by intraperitoneal mini-osmotic pump. The class given is in vivo, juvenile coho salmon. Conditions: CEME by intraperitoneal mini-osmotic pump; control group 50%. As to the method:
Constant delivery of peptide P-CN using intraperitoneal mini-osmotic pumps was carried out. Briefly, juvenile coho salmon were divided into three treatment groups: A. Bacterial injection alone (12 fish). B. Fish saline osmotic pump and bacterial injection (12 fish). C. A combination of P-CN osmotic pump and bacterial injection (19 fish). The fish were anaesthetized and implanted (peritoneal cavity) with mini-osmotic pumps having a pumping rate of 0.13 µl/hour. Heaters were placed in the tanks to keep the water temperature between 12 and 13° C. Pumps were filled with concentrated P-CN to deliver approximately […] peptide to fish over a 30-day period. Twelve days after pump implantation, the fish received intraperitoneal injections of V. anguillarum ([…]). Mortalities were first noticed on day 3 for the group injected with bacteria alone and on day 5 for the group which received saline osmotic pumps as well as bacterial injections. However, there was no significant difference in mortality between the bacterial injection alone group and the saline osmotic pump group (67% vs. 75%). Mortalities were delayed for the P-CN osmotic pump group. The P-CN osmotic pump group had only one fish die on day 6 over the 30 days experiments with an accumulated mortality of 5%. […] Furthermore, since cationic peptides are not effective in a single treatment and constant administration is necessary, this argues for the potential success of transgenic fish expressing peptide P-CN.
(§1) Fish loss from disease is a significant problem in aquaculture worldwide. However, expression of natural cationic peptide genes in fish could increase disease resistance because of continual cellular production of the antimicrobial peptides. In order to choose optimal peptides for transgenic fish, the antimicrobial activities of some cationic peptides were determined by testing minimum inhibitory concentrations (MICs) in vitro. […] The in vivo effect of CEME was examined by intraperitoneal injection of the peptide along with V. anguillarum into juvenile coho salmon. Fish in the bacteria alone control group had 60% mortality, while fish receiving peptide and bacteria injections had 82% mortality. […] Therefore, constant delivery of CEME and Pleurocidin-CN using intraperitoneal mini-osmotic pumps were carried out. Twelve days after pump implantation, the fish received intraperitoneal injections of V. anguillarum. The CEME and pleurocidin-CN pump group had longer survival time and lower mortalities than the control groups (50% Vs. 13%, and 75% Vs. 5%, respectively). Indolicidin transgenic cutthroat trout were made using a construct including an MT promoter, growth hormone signal, pre-region, indolicidin, and terminator. […]

Assay [2] concerns V. anguillarum. Description: Single intraperitoneal injection of peptide along with V. anguillarum into juvenile coho salmon. Conditions: single injection of peptide along with bacteria; bacteria alone control 60%. The assay is classed as in vivo. The method, then:
as §1, with “terminator. Transgenic individuals were identified by serum analysis using PCR with construct-specific oligonucleotide primers.” for “terminator.”

The structures appear in SMILES notation.

The source of these data is US6818407B2, “Anti-endotoxic antimicrobial cationic peptides and methods of use therfor” (priority 1998, dated 2004).

Regarding `CC[C@H](C)[C@H](NC(=O)CNC(=O)[C@@H](NC(=O)[C@H](CCCCN)NC(=O)[C@H](CCCCN)NC(=O)[C@H](Cc1ccccc1)NC(=O)[C@H](CC(C)C)NC(=O)[C@H](CCCCN)NC(=O)[C@H](Cc1c[nH]c2ccccc12)NC(=O)[C@@H](N)CCCCN)[C@@H](C)CC)C(=O)NCC(=O)N[C@@H](C)C(=O)N[C@H](C(=O)N[C@@H](CC(C)C)C(=O)N[C@@H](CCCCN)C(=O)N[C@H](C(=O)N[C@@H](CC(C)C)C(=O)N[C@H](C(=O)N[C@H](C(=O)NCC(=O)N[C@@H](CC(C)C)C(=O)N1CCC[C@H]1C(=O)N[C@@H](C)C(=O)N[C@@H](CC(C)C)C(=O)N[C@H](C(=O)N[C@@H](CO)C(=O)O)[C@@H](C)CC)[C@@H](C)O)[C@@H](C)O)C(C)C)C(C)C` [CEME, reference compound], the “Mortality, pump group” value in assay [1] is 13%. Moreover, in assay [2], the Mortality amounted to 82%.
